The text on data set [1]:
Absorption of nicotine from the oral cavity to the systemic circulation is dependent on the pH of the saliva, pH of the blood plasma and the pKa of nicotine, which is about 7.8. Assuming a pH of the plasma of 7.4 and of the saliva of 6.8 only about 10% of the nicotine will be in the free base form. Thus, in order to promote absorption of nicotine in a free base form, which is the form predominantly absorbed through the mucosa, the pH of the saliva must be increased. At a pH of 8.8 about 90% of the nicotine will then be in the free base form.

For data set [2] the following is noted: smoking a cigarette; cited from earlier work.
The test system of data set [3] is adult. The settings on record: Merck Index; cited from earlier work.

Read-outs that look alike come from different tables or passages of the source.

Here are results for one molecule from patent publication US20120017924A1 (priority 2001, published 2012).

As to `CN1CCCC1c1cccnc1` (stereo not shown) [nicotine, 3-(1-methyl-2-pyrrolidinyl)-pyridine], the “nicotine in the free base form” value in data set [1] (assuming pH of plasma 7.4 and of saliva 6.8) is “about 10%”; in data set [1] (at a pH of 8.8), “about 90%”. Moreover, the “time for nicotine to reach the brain after inhalation” value in data set [2] is given as “ten”. Further, the “amount of nicotine able to kill an adult” value in data set [3] is on record as “Approximately forty”.
